# Measurements: EP4778931A1, “ULK1 INHIBITOR, PREPARATION METHOD THEREFOR AND USE THEREOF” (Dovetree Medicines Unus, Inc., priority 2023, dated 2025)
# Tested on: autophagy level in HEK293 GFP-LC3 stably transfected cells
# Experiment: Inhibition of autophagy level in HEK293 GFP-LC3 stably transfected cells (GFP fluorescence, high-content imaging)
# Format: cell-based
# Settings: Homo sapiens, Torin1 100 nM, 24 h incubation, 8 concentrations, highest 10 µM, read-out: Autophagic Flux IC50
# Method: The inhibitory effect of the compound of the present disclosure on intracellular autophagy was evaluated by testing the impact of the compound of the present disclosure on the fluorescence intensity of HEK293 GFP-LC3 stably transfected cells.
# HEK293 GFP-LC3 stably transfected cells (HEK293, ATCC, CRL-1573) were cultured in a complete medium, namely, a DMEM medium (Gibco, 11965-092) containing 10% fetal bovine serum (Corning, 35-081-CV), 1% double antibody (Gibco, 15140-122) and 1 µg/mL of Puromycin (Invitrogen- A1113803).
# Cell plating: HEK293 GFP-LC3 stably transfected cells at 80% growth confluence were digested, diluted with a medium free of Puromycin, and added to a 96-well cell culture plate (Geriner, 655090) at 12,000 cells per well, with a volume of 90 µL.
# Compound incubation: 5 µL of Torin1 and 5 µL of a serially diluted compound were added to each well so that the highest concentration of the compound in the reaction system was 10 µM. 3-fold serial dilution with 8 concentrations was performed, and the final concentration of Torin1 was 100 nM. The DMSO content in the system was 0.1%. The positive control wells (PC) contain DMSO at a final concentration of 0.1%, and the negative control wells (NC) contain 100 nM of Torin1 with 0.1% of DMSO. The reaction plate was placed in an incubator at 37°C in 5% CO2, and was incubated for 24 h.
# Cell staining and fixation: The cell plate was taken out, and 10 µL of Hochest33342 nuclear staining reagent (Thermo, H1399) was added to each well, followed by incubation at 37°C in 5% CO2 for 30 min. After the incubation was completed, the cell supernatant was discarded, and 100 µL of pre-cooled 4% paraformaldehyde was added to each well to fix the cells for 15 min. Then, the fixative was discarded, and 100 µL of PBS was added to each well. Images were captured for analysis using a high-content cell imaging analyzer (PE, Operetta CLS), and GFP fluorescence signals were collected for data processing.
# The average GFP fluorescence signal intensity in the reaction wells was collected for the calculation of the inhibition ratio: [formula]
# The dose-effect curve was fitted using the log(inhibitor) vs. response -Variable slope of Graphpad Prism8, thereby affording the IC50 value of each compound for inhibiting autophagy level in HEK293 GFP-LC3 stably transfected cells.
row,SMILES,IC50
1,CN1CCN2c3ccc(Nc4ncc(C(F)(F)F)c(NCCCN5CCCCC5=O)n4)cc3COCC2C1 (centres unmarked) [Compound 11],> 1000 nM
2,CN1CCN2c3ccc(Nc4ncc(C(F)(F)F)c(N5CCC6(CCN(C)C6)C5)n4)cc3COCC2C1 (centres unmarked) [Compound 5],100 to 1000 nM
3,CN1CCN2c3ccc(Nc4ncc(C(F)(F)F)c(N[C@H]5CC[C@@H](n6cccn6)CC5)n4)cc3COCC2C1 (some centres unmarked) [Compound 6],100 to 1000 nM
4,CN1CCN2c3ccc(Nc4ncc(C(F)(F)F)c(OCCCN5CCCCC5=O)n4)cc3OCC2C1 (centres unmarked) [Compound 12],100 to 1000 nM
5,CN1CCN2c3ccc(Nc4ncc(C(F)(F)F)c(N5CC6(CN(C)C6)C5)n4)cc3COCC2C1 (centres unmarked) [Compound 22],> 1000 nM
6,CN1CCN2c3ccc(Nc4ncc(C(F)(F)F)c(N5CCC(n6cccn6)CC5)n4)cc3COCC2C1 (centres unmarked) [Compound 4],100 to 1000 nM
7,CN1CCN2c3ccc(Nc4ncc(C(F)(F)F)c(N5CC6(CCN(C)C6)C5)n4)cc3COCC2C1 (centres unmarked) [Compound 20],> 1000 nM
8,CN1CCN2c3ccc(Nc4ncc(C(F)(F)F)c(OCCCc5ccccc5C#N)n4)cc3COCC2C1 (centres unmarked) [Compound 9],100 to 1000 nM
9,CN1CCN2c3ccc(Nc4ncc(C(F)(F)F)c(N5CCN(C)C(=O)C5)n4)cc3COCC2C1 (centres unmarked) [Compound 1],> 1000 nM
10,CN1CCN2c3ccc(Nc4ncc(C(F)(F)F)c(NC5CCN(C(=O)C6CCC6)CC5)n4)cc3COCC2C1 (centres unmarked) [Compound 21],100 to 1000 nM
11,CN1CCN2c3ccc(Nc4ncc(C(F)(F)F)c(NCCCn5cccn5)n4)cc3COCC2C1 (centres unmarked) [Compound 8],100 to 1000 nM
12,CN1CCN2c3ccc(Nc4ncc(C(F)(F)F)c(OCCCN5CCCCC5=O)n4)cc3COCC2C1 (centres unmarked) [Compound 3],100 to 1000 nM
13,CN1CCN2c3ccc(Nc4ncc(C(F)(F)F)c(N5CCC6(CCN(C)C6)CC5)n4)cc3COCC2C1 (centres unmarked) [Compound 2],100 to 1000 nM
14,CN1CCN2c3ccc(Nc4ncc(C(F)(F)F)c(OCCCn5cccn5)n4)cc3COCC2C1 (centres unmarked) [Compound 23],100 to 1000 nM
